The text below walks through data of patent US20230101069A1, “AGENTS FOR USE IN THE TREATMENT OF TISSUE DAMAGE 2” (UCL BUSINESS LTD, priority 2020, published 2023).

Molecules are shown by their SMILES.

For the first assay, the target named is T1, CRP (Homo sapiens, UniProt P02741).
T1 sequence (P02741 19-224): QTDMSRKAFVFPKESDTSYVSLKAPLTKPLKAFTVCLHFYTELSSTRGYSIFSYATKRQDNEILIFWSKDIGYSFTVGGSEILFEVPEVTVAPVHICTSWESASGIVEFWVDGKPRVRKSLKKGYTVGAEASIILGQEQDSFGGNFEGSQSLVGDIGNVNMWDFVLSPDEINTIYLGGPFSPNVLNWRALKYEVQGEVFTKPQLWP
The assay is described as follows: rat acute myocardial infarction model (coronary artery ligation) with administered human CRP. In kind it is in vivo. Conditions: ischaemia reperfusion design and terminal coronary artery ligation, Pepys, unpublished observations. From the text: Human CRP and activated rat complement were deposited in and around the infarct and the exacerbation of tissue damage was absolutely complement dependent. Similar observations were made in the middle cerebral artery occlusion model of stroke in rats (3).
The design of the first small molecule inhibitor of CRP binding for use in vivo, bis(phosphocholine)hexane (BPC6), enabled conclusive confirmation of the pathogenic role of human CRP in exacerbating tissue damage after ischaemic infarction (2).
BPC6 and BPC8 are avidly bound by CRP, cross linking pairs of the native pentameric protein molecules. […] However, the bis(phosphocholine)alkane series of compounds were difficult to synthesise and purify at scale.
In the case of `C[N+](C)(C)CCOP(=O)(O)OCCCCCCCCOP(=O)(O)OCC[N+](C)(C)C` [Example 12, bis(phosphocholine)octane], the “protective effect against human CRP pathogenicity” value was “same protective effect”.

The next assay addresses T1, CRP. Briefly: inhibition of CRP binding in vitro. Conditions: Pepys, unpublished observations.
`C[N+](C)(C)CCOP(=O)(O)OCCCCCCCCOP(=O)(O)OCC[N+](C)(C)C` [Example 12, bis(phosphocholine)octane]: the “potency as inhibitor of CRP binding in vitro, compared with BPC6” value is listed as “more potent inhibitor of CRP binding in vitro”.

The target in another assay is T1, CRP.
Experiment: not given
The note with it: rats undergoing coronary artery ligation and receiving human CRP; cited from earlier work.
`C[N+](C)(C)CCOP(=O)([O-])OCCCCCCOP(=O)([O-])OCC[N+](C)(C)C` [BPC6, bis(phosphocholine)hexane]: the “increased damage caused by human CRP after coronary artery ligation” value is “completely abrogated the increased damage”.

For another assay, the target named is T1, CRP. Briefly: MIRA immunoturbidimetric assay (inhibition of CRP recognition, COBAS MIRA autoanalyser). Also on record: The final concentrations were 0.73 μM native pentameric CRP; from tissue. Conditions: 0.73 μM native pentameric CRP, TC buffer, 1 h at room temperature; read-out: IC50. In kind it is binding. The source says: The CRP immunoturbidimetric assay on the Roche COBAS MIRA Plus autoanalyser, utilises two different sized latex particles that are covalently coupled with two different monoclonal antibodies with specificity for different CRP epitopes (5). The assay was validated by Roche for measurement of native pentameric CRP, for which it has high sensitivity and specificity and a high upper detection limit; it was calibrated against a standard produced in our laboratory. Serendipitously, one of the assay's antibodies binds to an epitope present on the ligand binding B face of CRP. Thus, when the binding pocket is occupied by ligand or is occluded, for example by B face to B face complexing of pentamers, the assay fails to detect CRP although it is demonstrable by other types of assays that employ antibodies which bind to different epitopes. Bivalent compounds such as BPC8 and APL-2191 were designed to crosslink pairs of CRP pentamers. Therefore, inhibition of CRP recognition in the MIRA assay is a convenient tool to monitor the efficacy and potency of complex formation between such ligands and CRP (6).
CRP concentrations were measured in the presence and absence of ligands by the COBAS MIRA autoanalyser. Concentrated Tris-calcium buffer (×10 TC) was prepared in MilliQ water from trishydroxymethyamine (100 mM), calcium chloride (20 mM) and sodium chloride (1.4 M). The pH was adjusted to 8.0 using HCl and sodium azide was added (0.1% w/v); the buffer was stored at 4° C. A tenfold diluted working buffer (TC) was prepared by dilution 100 ml of the ×10 concentrated buffer with 900 ml of MilliQ water. Human CRP was isolated, purified and characterised as previously reported (6-9) and stored frozen at −80° C. When required, stock CRP was thawed at 37° C. and working dilutions prepared that were kept at 4° C. for the duration of an experiment. CRP concentration was determined spectrophotometrically (Beckman Coulter DU 650) in quartz cuvettes with a 1 cm light path, by measuring […] after correction for absorbance at 320 nm (light scattering) and using the measured absorption coefficient A (1%, 1 cm)=17.5 for human CRP (10). Human CRP at ˜90 μg/ml (0.78 μM of pentamer) in TC buffer was prepared from a stock solution; a 75 μl aliquot was used in the assay. Compounds were supplied by Wuxi AppTec (Wuhan, China) as solids. They were dissolved in TC buffer at suitable concentrations, depending on solubility, of up to 10 mM (labelled S1). They were then serially diluted 1:2 with TC buffer (100 μl ligand+200 μl TC) to provide up to 9 dilutions, S2-S10. A TC buffer control (50) was included in each assay. A 15 μl volume of each ligand solution was incubated with 75 μl of CRP for 1 h at room temperature. The final concentrations were 0.73 μM native pentameric CRP, ligands S1-S10=625-0.03 μM, corresponding to ligand:CRPr ratios of 850-0.04. Where compounds were of reduced solubility in TC buffer, lower stock concentrations were used (from 0.6 mM), corresponding to final top assay concentrations of 100 μM.
Data are expressed as measured CRP (mg/L) against final total ligand concentration (μM) and were plotted using Sigmaplot (V14) using the 4 parameter logistic curve y=min+(max−min)/(1+(x/EC50)[…]) to calculate EC50. Where appropriate, samples were also measured in whole normal human serum following the addition of a known amount of human CRP. All compounds were assayed in comparison with a highly purified preparation of bis(phosphocholine)octane (BPC8), that was prepared by Carbogen AMCIS AG and diluted into sterile water at 10 mM concentration. It was stored at −80° C. The solution was diluted into TC buffer as required.
For the molecule `O=C(N[C@@H](C(=O)O)C1CN2CCC1CC2)c1ccc(C(=O)N[C@@H](C(=O)O)C2CN3CCC2CC3)cc1` (stereo partly drawn) [Example 1, (R,2R,2′R)-2,2′-(terephthaloylbis(azanediyl))bis(2-((R)-quinuclidin-3-yl)acetic acid)], the IC50 was 0.6 µM.
Same read-out and setting: the result for `O=C(N[C@@H](C(=O)O)[C@H]1CN2CCC1CC2)c1ccc(-c2ccc(C(=O)N[C@@H](C(=O)O)[C@H]3CN4CCC3CC4)cc2)cc1` [Example 5, (R)-2-(4′-(((R)-carboxy((R)-quinuclidin-3-yl)methyl)carbamoyl)-[1,1′-biphenyl]-4-ylcarboxamido)-2-((R)-quinuclidin-3-yl)acetic acid] reads 0.73 µM; that for `O=C(N[C@@H](C(=O)O)[C@H]1CN2CCC1CC2)c1cnc(C(=O)N[C@@H](C(=O)O)[C@H]2CN3CCC2CC3)cn1` [Example 3, (R,2R,2′R)-2,2′-((pyrazine-2,5-dicarbonyl)bis(azanediyl))bis(2-((R)-quinuclidinyl)acetic acid)], 1.22 µM; that for `O=C(N[C@@H](C(=O)O)[C@H]1CN2CCC1CC2)c1ccc2cc(C(=O)N[C@@H](C(=O)O)[C@H]3CN4CCC3CC4)ccc2c1` [Example 7, (R,2R,2′R)-2,2′-((naphthalene-2,6-dicarbonyl)bis(azanediyl))bis(2-((R)-quinuclidin-3-yl)acetic acid)], 0.51 µM.
`O=C(N[C@@H](C(=O)O)[C@H]1CN2CCC1CC2)c1cc(OCc2ccccc2)c(C(=O)N[C@@H](C(=O)O)[C@H]2CN3CCC2CC3)cc1OCc1ccccc1` [Example 10]: the IC50 stood at 0.67 µM.
Consider `O=C(N[C@@H](C(=O)O)[C@H]1CN2CCC1CC2)c1ccc(C(=O)N[C@@H](C(=O)O)[C@H]2CN3CCC2CC3)nc1` [Example 2, (R,2R,2′R)-2,2′-((pyridine-2,5-dicarbonyl)bis(azanediyl))bis(2-((R)-quinuclidinyl)acetic acid)], for which the IC50 stood at 0.65 µM.
With `O=C(N[C@@H](C(=O)O)[C@H]1CN2CCC1CC2)c1cccc(C(=O)N[C@@H](C(=O)O)[C@H]2CN3CCC2CC3)c1` [Example 11, 2-[[3-[[carboxy-1(3R)-quinuclidin-3-yl]methyl]carbamoyl]benzoylamino]-2-[(3R)-quinuclidin-3-yl]acetic acid], the IC50 worked out at 2.02 µM.
In the case of `Cc1cc(C(=O)N[C@@H](C(=O)O)[C@H]2CN3CCC2CC3)c(C)cc1C(=O)N[C@@H](C(=O)O)[C@H]1CN2CCC1CC2` [Example 8], the IC50 was 0.59 µM.
With `Cc1cc(C(=O)N[C@@H](C(=O)O)[C@H]2CN3CCC2CC3)ccc1C(=O)N[C@@H](C(=O)O)[C@H]1CN2CCC1CC2` [Example 9], the IC50 was 0.55 µM.
`C[N+](C)(C)CCOP(=O)(O)OCCCCCCCCOP(=O)(O)OCC[N+](C)(C)C` [Example 12, bis(phosphocholine)octane]: the IC50 turned out to be 1.2 µM.
In the case of `O=C(N[C@@H](C(=O)O)[C@H]1CN2CCC1CC2)c1ccc(C(=O)N[C@@H](C(=O)O)[C@H]2CN3CCC2CC3)nn1` [Example 4, (R,2R,2′R)-2,2′-((pyridazine-3,6-dicarbonyl)bis(azanediyl))bis(2-((R)-quinuclidin-3-yl)acetic acid)], the IC50 came out at 0.58 µM.
Same read-out and setting: the result for `Cc1cc(C(=O)N[C@@H](C(=O)O)[C@H]2CN3CCC2CC3)ccc1-c1ccc(C(=O)N[C@@H](C(=O)O)[C@H]2CN3CCC2CC3)cc1` [Example 6, (R)-2-(4′-(((R)-carboxy((R)-quinuclidin-3-yl)methyl)carbamoyl)-2′-methyl-[1,1′-biphenyl]-4-ylcarboxamido)-2-((R)-quinuclidin-3-yl)acetic acid] reads 0.56 µM.

Still in this assay, the particulars now being: alternative stereoisomers of the formula (I) structure; read-out: IC50 of alternative stereoisomers (QA,QA: Quinuclidine, Amino Acid).
With `O=C(NC(C(=O)O)C1CN2CCC1CC2)c1ccc(C(=O)NC(C(=O)O)C2CN3CCC2CC3)cc1` (single isomer, unassigned) [RS,RR], the IC50 was above 1000 µM.
`O=C(NC(C(=O)O)C1CN2CCC1CC2)c1ccc(C(=O)NC(C(=O)O)C2CN3CCC2CC3)cc1` (single isomer, unassigned) [RS,RS]: the IC50 is above 1000 µM.
`O=C(NC(C(=O)O)C1CN2CCC1CC2)c1ccc(C(=O)NC(C(=O)O)C2CN3CCC2CC3)cc1` (single isomer, unassigned) [SS,SS]: the IC50 turned out to be 34.4 µM.
For `O=C(NC(C(=O)O)C1CN2CCC1CC2)c1ccc(C(=O)NC(C(=O)O)C2CN3CCC2CC3)cc1` (single isomer, unassigned) [SR,SR], the IC50 is above 1000 µM.

In general, IC50 refers to the concentration at which inhibition is half-maximal.
